Converted amounts (≈) assume the structure as drawn.
Key:
Assay type in all cases: cell-based
[1] = system: Acinetobacter calcoaceticus ATCC 15473; test: Antibacterial activity, MIC; settings: ATCC15473, ATCC 15473, agar two-fold dilution, 37° C., 20 hours, read-out: MIC
In short: (§1)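 The compound is dispersed into Mueller-Hinton agar across a two-fold dilution series. Each strain is applied as 2 μl of a 10^7 CFU/ml suspension and grown 20 hours at 37 °C.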

[2] = system: Bacillus cereus ATCC 11778; test: Antibacterial activity, MIC; settings: ATCC11778, ATCC 11778, agar two-fold dilution, 37° C., 20 hours, read-out: MIC
In short: as §1

[3] = system: Bacillus megaterium ATCC 9885; test: Antibacterial activity, MIC; settings: Priestia megaterium, ATCC9885; ATCC 9885; agar two-fold dilution, 37° C., 20 hours; read-out: MIC
In short: as §1

[4] = system: Citrobacter freundii ATCC 8090; test: Antibacterial activity, MIC; settings: ATCC8090, ATCC 8090, agar two-fold dilution, 37° C., 20 hours, read-out: MIC
In short: as §1

[5] = system: Enterobacter aerogenes ATCC 29751; test: Antibacterial activity, MIC; settings: Klebsiella aerogenes, ATCC29751; ATCC 29751; agar two-fold dilution, 37° C., 20 hours; read-out: MIC
In short: as §1

[6] = system: Enterobacter cloacae ATCC 27508; test: Antibacterial activity, MIC; settings: ATCC27508, ATCC 27508, agar two-fold dilution, 37° C., 20 hours, read-out: MIC
In short: as §1

[7] = system: Escherichia coli ATCC 10536; test: Antibacterial activity, MIC; settings: ATCC10536, agar two-fold dilution, 37° C., 20 hours
In short: as §1

[8] = system: Escherichia coli ATCC 25922; test: Antibacterial activity, MIC; settings: ATCC25922, agar two-fold dilution, 37° C., 20 hours
In short: as §1

[9] = system: Klebsiella pneumoniae ATCC 10031; test: Antibacterial activity, MIC; settings: ATCC10031, ATCC 10031, agar two-fold dilution, 37° C., 20 hours, read-out: MIC
In short: as §1

[10] = system: Micrococcus luteus ATCC 9341; test: Antibacterial activity, MIC; settings: ATCC9341, ATCC 9341, agar two-fold dilution, 37° C., 20 hours, read-out: MIC
In short: as §1

[11] = system: Morganella morganii ATCC 8076h; test: Antibacterial activity, MIC; settings: ATCC8076H, agar two-fold dilution, 37° C., 20 hours
In short: as §1

[12] = system: Proteus mirabilis ATCC 25933; test: Antibacterial activity, MIC; settings: ATCC25933, ATCC 25933, agar two-fold dilution, 37° C., 20 hours, read-out: MIC
In short: as §1

[13] = system: Proteus vulgaris ATCC 6059; test: Antibacterial activity, MIC; settings: ATCC6059, ATCC 6059, agar two-fold dilution, 37° C., 20 hours, read-out: MIC
In short: as §1

[14] = system: Providencia rettgeri ATCC 9250; test: Antibacterial activity, MIC; settings: ATCC9250, agar two-fold dilution, 37° C., 20 hours
In short: as §1

[15] = system: Pseudomonas aeruginosa ATCC 10145; test: Antibacterial activity, MIC; settings: ATCC10145, ATCC 10145, agar two-fold dilution, 37° C., 20 hours, read-out: MIC
In short: as §1

[16] = system: Pseudomonas aeruginosa ATCC 25619; test: Antibacterial activity, MIC; settings: ATCC25619, ATCC 25619, agar two-fold dilution, 37° C., 20 hours, read-out: MIC
In short: as §1

[17] = system: Pseudomonas aeruginosa ATCC 27853; test: Antibacterial activity, MIC; settings: ATCC27853, ATCC 27853, agar two-fold dilution, 37° C., 20 hours, read-out: MIC
In short: as §1

[18] = system: Salmonella typhimurium ATCC 14028; test: Antibacterial activity, MIC; settings: Salmonella enterica; ATCC 14028; agar two-fold dilution, 37° C., 20 hours; read-out: MIC
In short: as §1

[19] = system: Serratia marcescens ATCC 27117; test: Antibacterial activity, MIC; settings: ATCC27117, ATCC 27117, agar two-fold dilution, 37° C., 20 hours, read-out: MIC
In short: as §1

[20] = system: Shigella flexneri ATCC 11836; test: Antibacterial activity, MIC; settings: ATCC11836, agar two-fold dilution, 37° C., 20 hours
In short: as §1

[21] = system: Shigella sonnei ATCC 11060; test: Antibacterial activity, MIC; settings: ATCC11060, ATCC 11060, agar two-fold dilution, 37° C., 20 hours, read-out: MIC
In short: as §1

[22] = system: Staphylococcus aureus ATCC 10537; test: Antibacterial activity, MIC; settings: ATCC10537, ATCC 10537, agar two-fold dilution, 37° C., 20 hours, read-out: MIC
In short: as §1

[23] = system: Staphylococcus aureus ATCC 6538p; test: Antibacterial activity, MIC; settings: ATCC6538P, ATCC 6538p, agar two-fold dilution, 37° C., 20 hours, read-out: MIC
In short: as §1

[24] = system: Staphylococcus epidermidis ATCC 12228; test: Antibacterial activity, MIC; settings: ATCC12228, ATCC 12228, agar two-fold dilution, 37° C., 20 hours, read-out: MIC
In short: as §1

[25] = system: Streptococcus faecalis ATCC 29212; test: Antibacterial activity, MIC; settings: Enterococcus faecalis, ATCC29212; ATCC 29212; agar two-fold dilution, 37° C., 20 hours; read-out: MIC
In short: as §1

Escherichia coli = test: Antibacterial activity against clinically isolated strains, MIC; settings: 38 clinical isolates, broth microdilution test
Klebsiella pneumoniae = test: as above; settings: 10 clinical isolates, broth microdilution test; for MIC90: read-out: MIC 90%
[26] = system: Staphylococcus aureus methicillin susceptible; test: as above; settings: methicillin susceptible, 42 clinical isolates, broth microdilution test; for MIC90: read-out: MIC 90%
[27] = system: Staphylococcus aureus methicillin resistant; test: as above; settings: methicillin resistant, 7 clinical isolates, broth microdilution test; for MIC90: read-out: MIC 90%
Pseudomonas aeruginosa = test: as above; settings: 54 clinical isolates, broth microdilution test; for MIC90: read-out: MIC 90%

| Compound | MIC [1] | MIC [2] | MIC [3] | MIC [4] | MIC [5] | MIC [6] | MIC [7] | MIC [8] | MIC [9] | MIC [10] | MIC [11] | MIC [12] | MIC [13] | MIC [14] | MIC [15] | MIC [16] | MIC [17] | MIC [18] | MIC [19] | MIC [20] | further results |
| --- | --- | --- | --- | --- | --- | --- | --- | --- | --- | --- | --- | --- | --- | --- | --- | --- | --- | --- | --- | --- | --- |
| CCO/N=C(\C(=O)NC1C(=O)N2C(C(=O)[O-])=C(CSc3nc(N)cc(N)[n+]3N)CSC12)c1nsc(N)n1 (stereo not shown) [Compound I-17] | 2 µg/mL (≈ 3.52 µM) | 8 µg/mL (≈ 14.1 µM) | 0.13 µg/mL (≈ 0.229 µM) | 0.063 µg/mL (≈ 0.111 µM) | 0.25 µg/mL (≈ 0.44 µM) | 0.016 µg/mL (≈ 0.0282 µM) | 0.13 µg/mL (≈ 0.229 µM) | 0.13 µg/mL (≈ 0.229 µM) | 0.016 µg/mL (≈ 0.0282 µM) | 0.016 µg/mL (≈ 0.0282 µM) | 0.016 µg/mL (≈ 0.0282 µM) | 0.5 µg/mL (≈ 0.881 µM) | 0.5 µg/mL (≈ 0.881 µM) | ≤ 0.008 µg/mL | 4 µg/mL (≈ 7.05 µM) | 0.5 µg/mL (≈ 0.881 µM) | 2 µg/mL (≈ 3.52 µM) | 0.5 µg/mL (≈ 0.881 µM) | 0.25 µg/mL (≈ 0.44 µM) | 0.031 µg/mL (≈ 0.0546 µM) | MIC [21]: 0.13 µg/mL (≈ 0.229 µM); MIC [22]: 0.5 µg/mL (≈ 0.881 µM); MIC [23]: 0.5 µg/mL (≈ 0.881 µM); MIC [24]: 0.25 µg/mL (≈ 0.44 µM); MIC [25]: 32 µg/mL (≈ 56.4 µM); MIC50 (Escherichia coli): 0.13 µg/mL (≈ 0.229 µM); MIC90 (Escherichia coli): 0.25 µg/mL (≈ 0.44 µM); MIC50 (Klebsiella pneumoniae): 0.25 µg/mL (≈ 0.44 µM); MIC90 (Klebsiella pneumoniae): 0.25 µg/mL (≈ 0.44 µM); MIC50 [26]: 0.5 µg/mL (≈ 0.881 µM); MIC90 [26]: 1 µg/mL (≈ 1.76 µM); MIC50 [27]: 16 µg/mL (≈ 28.2 µM); MIC90 [27]: 64 µg/mL (≈ 113 µM); MIC50 (Pseudomonas aeruginosa): 4 µg/mL (≈ 7.05 µM); MIC90 (Pseudomonas aeruginosa): 8 µg/mL (≈ 14.1 µM) |
| CC(O/N=C(\C(=O)NC1C(=O)N2C(C(=O)[O-])=C(CSc3nc(N)cc(N)[n+]3N)CSC12)c1csc(N)n1)C(=O)O (stereo not shown) [Compound I-14] | 2 µg/mL (≈ 3.28 µM) | 64 µg/mL (≈ 105 µM) | 0.5 µg/mL (≈ 0.819 µM) | 0.031 µg/mL (≈ 0.0508 µM) | 0.5 µg/mL (≈ 0.819 µM) | ≤ 0.008 µg/mL | 0.031 µg/mL (≈ 0.0508 µM) | 0.031 µg/mL (≈ 0.0508 µM) | 0.031 µg/mL (≈ 0.0508 µM) | 0.5 µg/mL (≈ 0.819 µM) | ≤ 0.008 µg/mL | 0.031 µg/mL (≈ 0.0508 µM) | 0.031 µg/mL (≈ 0.0508 µM) | ≤ 0.008 µg/mL | 2 µg/mL (≈ 3.28 µM) | 1 µg/mL (≈ 1.64 µM) | 1 µg/mL (≈ 1.64 µM) | 0.13 µg/mL (≈ 0.213 µM) | 0.031 µg/mL (≈ 0.0508 µM) | 0.031 µg/mL (≈ 0.0508 µM) | MIC [21]: 0.016 µg/mL (≈ 0.0262 µM); MIC [22]: 2 µg/mL (≈ 3.28 µM); MIC [23]: 4 µg/mL (≈ 6.55 µM); MIC [24]: 1 µg/mL (≈ 1.64 µM); MIC [25]: > 128 µg/mL; MIC50 (Escherichia coli): 0.031 µg/mL (≈ 0.0508 µM); MIC90 (Escherichia coli): 0.063 µg/mL (≈ 0.103 µM); MIC50 (Klebsiella pneumoniae): 0.031 µg/mL (≈ 0.0508 µM); MIC90 (Klebsiella pneumoniae): 0.063 µg/mL (≈ 0.103 µM); MIC50 [26]: 4 µg/mL (≈ 6.55 µM); MIC90 [26]: 4 µg/mL (≈ 6.55 µM); MIC50 [27]: > 128 µg/mL; MIC90 [27]: > 128 µg/mL; MIC50 (Pseudomonas aeruginosa): 1 µg/mL (≈ 1.64 µM); MIC90 (Pseudomonas aeruginosa): 4 µg/mL (≈ 6.55 µM) |
